# Test results published in ChEMBL document CHEMBL5726611, “Factor XIA inhibitors” (2019).
# Target: Coagulation factor XI (Homo sapiens, UniProt P03951)
# Assay: Factor XIa Assay: The effectiveness of a compound of the present invention as an inhibitor of Coagulation Factor XIa can be determined using a relevant purified serine protease, and an appropriate synthetic substrate. The rate of hydrolysis of the chromogenic or fluorogenic substrate by the relevant serine protease was measured both in the absence and presence of compounds of the present invention. Assays were conducted at rt or at 37° C. […] A decrease in the rate of fluorescence change in the presence of inhibitor is indicative of enzyme inhibition. Such methods are known to one skilled in the art. […] Times required to achieve equilibration between enzyme and inhibitor were determined in control experiments. Initial velocities of product formation in the absence (Vo) or presence of inhibitor (Vi) were measured. Assuming competitive inhibition, and that unity is negligible compared Km/[S], [I]/e, and [I]/e (where [S], [I], and e respectively represent the total concentrations, of substrate, inhibitor and enzyme), the equilibrium constant (Ki) for dissociation of the inhibitor from the enzyme can be obtained from the dependence of Vo/Vi on [I] shown in the following equation.
# Sequence of Coagulation factor XI (P03951 19-387 limits assumed): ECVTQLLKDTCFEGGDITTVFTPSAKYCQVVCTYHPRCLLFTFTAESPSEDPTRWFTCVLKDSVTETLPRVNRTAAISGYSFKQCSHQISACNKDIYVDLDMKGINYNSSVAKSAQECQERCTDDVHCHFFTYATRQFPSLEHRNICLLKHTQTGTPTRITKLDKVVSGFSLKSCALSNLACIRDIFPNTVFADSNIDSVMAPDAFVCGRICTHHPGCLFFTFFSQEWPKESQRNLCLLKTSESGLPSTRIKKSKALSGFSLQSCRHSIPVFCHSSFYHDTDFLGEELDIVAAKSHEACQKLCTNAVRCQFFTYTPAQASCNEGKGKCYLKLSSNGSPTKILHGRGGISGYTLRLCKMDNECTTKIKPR
# Sequence of Coagulation factor XI (P03951 388-625 limits assumed): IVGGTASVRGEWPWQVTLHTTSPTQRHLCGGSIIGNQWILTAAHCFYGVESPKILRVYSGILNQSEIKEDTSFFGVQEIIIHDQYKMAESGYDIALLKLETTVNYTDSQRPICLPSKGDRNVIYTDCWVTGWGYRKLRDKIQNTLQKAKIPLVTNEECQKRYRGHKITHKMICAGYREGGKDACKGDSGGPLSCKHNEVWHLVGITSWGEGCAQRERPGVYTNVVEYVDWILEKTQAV
row,Compound,Ki [nM]
1,COC(=O)Nc1ccc2c(c1)NC(=O)CCCCC(c1ccc(-c3c(F)cccc3OC(F)F)cn1)c1cccc-2c1 (stereo unspecified),> 875
2,COC(=O)Nc1ccc2c(c1)NC(=O)CCCCC(c1ccc(-c3cc(Cl)ccc3-n3cc(C(F)F)nn3)cn1)c1cccc-2c1 (stereo unspecified),9.2
3,COC(=O)Nc1ccc2c(c1)NC(=O)CCCCC(c1ccc(-c3cc(Cl)ccc3-n3cc(C#N)cn3)cn1)c1cccc-2c1 (stereo unspecified),211
4,COC(=O)Nc1ccc2c(c1)NC(=O)CCCCC(c1ccc(-c3cc(Cl)ccc3C(F)(F)F)cn1)c1cccc-2c1 (stereo unspecified),> 875
5,COC(=O)Nc1ccc2c(c1)NC(=O)CCCCC(c1ccc(-c3cc(Cl)ccc3OC(F)F)cn1)c1cccc-2c1 (stereo unspecified),181
6,COC(=O)Nc1ccc2c(c1)NC(=O)CCCCC(c1ccc(-c3cc(Cl)ccc3OC(F)(F)F)cn1)c1cccc-2c1 (stereo unspecified),399
7,COC(=O)Nc1ccc2c(c1)NC(=O)CCCCC(c1ccc(-c3cc(Cl)ccc3-n3cc(C4CC4)nn3)cn1)c1cccc-2c1 (stereo unspecified),137
8,COC(=O)Nc1ccc2c(c1)NC(=O)CCCCC(c1ccc(-c3c(-n4cc(C(F)(F)F)nn4)ccc(Cl)c3F)cn1)c1cccc-2c1 (stereo unspecified),2.02
9,COC(=O)Nc1ccc2c(c1)NC(=O)CCCCC(c1ccc(-c3cc(Cl)ccc3-n3cc(C(F)(F)F)nn3)cn1)c1cccc-2c1 (stereo unspecified),18.3
10,COC(=O)Nc1ccc2c(c1)NC(=O)CCCCC(c1ccc(-c3cc(Cl)ccc3-c3cnco3)cn1)c1cccc-2c1 (stereo unspecified),259
11,COC(=O)Nc1ccc2c(c1)NC(=O)CCCCC(c1ccc(-c3cc(Cl)ccc3-n3cc(Cl)nn3)cn1)c1cccc-2c1 (stereo unspecified),12
12,COC(=O)Nc1ccc2c(c1)NC(=O)CCCCC(c1ccc(-c3cc(Cl)ccc3-n3cc(C(F)(F)F)cn3)cn1)c1cccc-2c1 (stereo unspecified),708
13,COC(=O)Nc1ccc2c(c1)NC(=O)CCCCC(c1ccc(-c3cc(Cl)ccc3C#N)cn1)c1cccc-2c1 (stereo unspecified),41
14,COC(=O)Nc1ccc2c(c1)NC(=O)CCCCC(c1ccc(-c3cc(Cl)ccc3-c3cnn(C(F)F)c3)cn1)c1cccc-2c1 (stereo unspecified),640
15,COC(=O)Nc1ccc2c(c1)NC(=O)CCCCC(c1ccc(-c3c(-n4cnnn4)ccc(Cl)c3F)cn1)c1cccc-2c1 (stereo unspecified),0.24
16,COC(=O)Nc1ccc2c(c1)NC(=O)CCCCC(c1ccc(-c3cc(F)ccc3-n3cnnn3)cn1)c1cccc-2c1 (stereo unspecified),7
